Entries after “also recorded” stand apart in the source; their conditions may differ. Read-outs that look alike come from different tables or passages of the source.

The target in one series is HDAC4 (Homo sapiens, UniProt P56524). Put plainly: HDAC4 activity assay. The note with it: HDAC4 vs HDAC8. The series is classed as biochemical.
In another series the test system is CCRF-CEM cells. Briefly: Western blotting. The series is classed as cell-based, human. The following applies: 10 μM, 5 h.
Series [1] concerns HeLa (cervical adenocarcinoma). The note with it: for SCI (CC50 HS-27/CC50 cancer), HeLa: selective cytotoxicity index.
Series [2] relates to CCRF-CEM (T-cell leukemia). The following applies: for SCI (CC50 HS-27/CC50 cancer), CEM: selective cytotoxicity index; for cytotoxicity at 50 μM, CEM (printed in CC50 column): 72 h.
Series [3] relates to Ramos (Burkitt's B-cell lymphoma). The note with it: selective cytotoxicity index.
Series [4] has as its system CEM (T cell leukemia) xenografts. The note with it: mouse, in vivo.
For a further series, the target named is T1, HDAC8 (Homo sapiens, UniProt Q9BY41).
T1 sequence (Q9BY41 1-377): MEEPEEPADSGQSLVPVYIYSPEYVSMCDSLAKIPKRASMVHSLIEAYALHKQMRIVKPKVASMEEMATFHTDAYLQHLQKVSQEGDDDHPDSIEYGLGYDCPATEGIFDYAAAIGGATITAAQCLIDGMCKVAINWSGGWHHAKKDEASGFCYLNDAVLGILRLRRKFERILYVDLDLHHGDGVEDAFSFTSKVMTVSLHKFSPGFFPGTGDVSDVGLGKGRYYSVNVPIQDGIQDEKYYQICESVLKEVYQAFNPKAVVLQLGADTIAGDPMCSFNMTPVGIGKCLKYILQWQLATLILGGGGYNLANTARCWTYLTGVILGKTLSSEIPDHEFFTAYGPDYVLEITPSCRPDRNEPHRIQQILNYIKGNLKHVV
Put plainly: HDAC8 activity assay. The note with it: at tested concentrations. It counts as biochemical.

Series [5] concerns HS-27 (normal foreskin fibroblasts). Put plainly: DNS cytotoxicity assay, HS-27. The series is classed as cell-based, human. The following applies: 72 h, noncancerous cells.
Series [6] deals with HeLa (cervical adenocarcinoma). Put plainly: cells. The following applies: Homo sapiens, 72 h, read-out: % cell death at 10 μM, HeLa.
Another series deals with T2, PPARγ (Homo sapiens, UniProt P37231).
T2 sequence (P37231 238-503 limits assumed): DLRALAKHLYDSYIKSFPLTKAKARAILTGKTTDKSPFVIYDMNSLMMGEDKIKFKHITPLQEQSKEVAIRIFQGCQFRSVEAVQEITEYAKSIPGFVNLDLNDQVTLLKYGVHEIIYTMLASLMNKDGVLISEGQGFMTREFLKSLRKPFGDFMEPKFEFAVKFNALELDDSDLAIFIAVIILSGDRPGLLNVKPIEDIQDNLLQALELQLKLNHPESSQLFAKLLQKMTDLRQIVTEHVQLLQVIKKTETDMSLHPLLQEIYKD
Put plainly: PPARγ-GAL4 transactivation assay on HepG2 cells. The series is classed as cell-based. The note with it: HepG2, 25, 5 and 1 μM.

HDAC4, sequence (P56524 655-1084 limits assumed): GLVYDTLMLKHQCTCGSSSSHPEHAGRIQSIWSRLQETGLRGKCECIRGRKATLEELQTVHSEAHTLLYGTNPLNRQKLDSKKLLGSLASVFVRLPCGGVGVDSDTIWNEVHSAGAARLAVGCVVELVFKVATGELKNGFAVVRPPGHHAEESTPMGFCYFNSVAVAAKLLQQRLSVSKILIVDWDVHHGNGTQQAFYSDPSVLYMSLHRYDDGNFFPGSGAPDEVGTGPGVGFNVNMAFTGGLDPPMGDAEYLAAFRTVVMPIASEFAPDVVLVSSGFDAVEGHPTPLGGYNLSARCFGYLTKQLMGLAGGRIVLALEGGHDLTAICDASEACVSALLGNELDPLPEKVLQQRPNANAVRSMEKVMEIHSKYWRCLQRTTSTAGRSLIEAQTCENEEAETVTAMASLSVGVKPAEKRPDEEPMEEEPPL

In the case of `O=C(COc1ccc2cc(/C=C3/SC(=O)NC3=O)ccc2c1)Nc1ccccc1` [7a, 2-((6-((2,4-Dioxothiazolidin-5-ylidene)methyl)naphthalen-2-yl)-oxy)-N-phenylacetamide], on HDAC4, the “potency toward HDAC4 over HDAC8 (from IC50 values)” value (“potency toward HDAC4 over HDAC8” below) is listed as “at least 2 fold”. On the same count and under the same terms, as for `O=C(COc1ccc2cc(/C=C3/SC(=O)NC3=O)ccc2c1)Nc1ccc(F)cc1` [7b, 2-((6-((2,4-Dioxothiazolidin-5-ylidene)methyl)naphthalen-2-yl)-oxy)-N-(4-fluorophenyl)acetamide], the entry is “at least 2 fold”.

As to `Cc1ccc(NC(=O)COc2ccc3cc(/C=C4/SC(=O)NC4=O)ccc3c2)cc1` [7c, 2-((6-((2,4-Dioxothiazolidin-5-ylidene)methyl)naphthalen-2-yl)-oxy)-N-(p-tolyl)acetamide], the p53 expression entry with CCRF-CEM cells is listed as “no upregulated expression was observed”. In addition, in the series with CCRF-CEM cells (vs pioglitazone 10 μM), the c-Myc protein expression result was “downregulation of the c-Myc protein much greater than positive control pioglitazone” and the “cleaved caspase-3 expression” value is “increased expression of cleaved caspase-3”. For the same molecule, the “SCI (CC50 HS-27/CC50 cancer), HeLa” value in [1] turned out to be 3.9. In series [2], the “SCI (CC50 HS-27/CC50 cancer), CEM” value is recorded as 14.4. Further, in series [3], the “SCI (CC50 HS-27/CC50 cancer), Ramos” value turned out to be 5.8. Besides, in series [4], the “body weights of the mice” value is “not significantly affected”. For the molecule `O=C(COc1ccc2cc(/C=C3/SC(=O)NC3=O)ccc2c1)Nc1cccc(C(F)(F)F)c1` [7e, 2-((6-((2,4-Dioxothiazolidin-5-ylidene)methyl)naphthalen-2-yl)-oxy)-N-(3-(trifluoromethyl)phenyl) acetamide], the “HDAC8 inhibition (in words)” value on HDAC8 was “did not show HDAC8 inhibition”. In addition, in [5], the “% cell death at 10 μM, HS-27” value was >40%. For `O=C(COc1ccc2cc(/C=C3/SC(=O)NC3=O)ccc2c1)Nc1cccc(Cl)c1` [7f, N-(3-Chlorophenyl)-2-((6-((2,4-dioxothiazolidin-5-ylidene)-methyl)naphthalen-2-yl)oxy)acetamide], the “HDAC8 inhibition (in words)” value at HDAC8 is “did not show HDAC8 inhibition”. Besides, the “SCI (CC50 HS-27/CC50 cancer), Ramos” value in series [3] was >10. As for `COc1cccc(NC(=O)COc2ccc3cc(/C=C4/SC(=O)NC4=O)ccc3c2)c1` [7g, 2-((6-((2,4-Dioxothiazolidin-5-ylidene)methyl)naphthalen-2-yl)-oxy)-N-(3-methoxyphenyl)acetamide], the “SCI (CC50 HS-27/CC50 cancer), HeLa” value in [1] is listed as >10. For the same molecule, the cytotoxicity at 10 µM in series [6] was > 40%. The “SCI (CC50 HS-27/CC50 cancer), Ramos” value in series [3] is recorded as >10. For the same molecule, the “potency toward HDAC4 over HDAC8” value on HDAC4 is listed as “at least 2 fold”.

Regarding `O=C(COc1ccc2cc(/C=C3/SC(=O)NC3=O)ccc2c1)Nc1ccc(Cl)c(Cl)c1` [7h, N-(3,4-Dichlorophenyl)-2-((6-((2,4-dioxothiazolidin-5-ylidene)-methyl)naphthalen-2-yl)oxy)acetamide], the “HDAC8 inhibition (in words)” value at HDAC8 is “inactive; also recorded: not active”. `O=C(COc1ccc2cc(/C=C3/SC(=O)NC3=O)ccc2c1)Nc1c(F)cc(F)cc1Br` [7i, N-(2-Bromo-4,6-difluorophenyl)-2-((6-((2,4-dioxothiazolidin-5-ylidene)methyl)naphthalen-2-yl)oxy)acetamide]: in [1], the “SCI (CC50 HS-27/CC50 cancer), HeLa” value stood at 3.8. Further, the “HDAC8 inhibition (in words)” value at HDAC8 was “inactive”. The “SCI (CC50 HS-27/CC50 cancer), CEM” value in series [2] is on record as 4.2. Further, the “SCI (CC50 HS-27/CC50 cancer), Ramos” value in [3] is 4.2. Consider `O=C(COc1ccc2cc(/C=C3/SC(=O)NC3=O)ccc2c1)Nc1ccccc1Oc1ccccc1` [7j, 2-((6-((2,4-Dioxothiazolidin-5-ylidene)methyl)naphthalen-2-yl)-oxy)-N-(2-phenoxyphenyl)acetamide], for which, in [1], the “SCI (CC50 HS-27/CC50 cancer), HeLa” value is reported as >10. For the same molecule, in [6], the cytotoxicity at 10 µM is > 40%. The “% cell death at 10 μM, HS-27” value in series [5] was 0%. In addition, the “SCI (CC50 HS-27/CC50 cancer), Ramos” value in series [3] is on record as >10. On to `O=C(COc1ccc2cc(/C=C3/SC(=O)NC3=O)ccc2c1)Nc1ccc(F)cc1F` [7k, N-(2,4-Difluorophenyl)-2-((6-((2,4-dioxothiazolidin-5-ylidene)-methyl)naphthalen-2-yl)oxy)acetamide], for which the “HDAC8 inhibition (in words)” value on HDAC8 was “inactive”. As for `Cc1cc(Br)ccc1NC(=O)COc1ccc2cc(/C=C3/SC(=O)NC3=O)ccc2c1` [7l, N-(4-Bromo-2-methylphenyl)-2-((6-((2,4-dioxothiazolidin-5-ylidene)methyl)naphthalen-2-yl)oxy)acetamide], the “SCI (CC50 HS-27/CC50 cancer), HeLa” value in [1] is >10. `Cc1cccc(NC(=O)COc2ccc3cc(/C=C4/SC(=O)NC4=O)ccc3c2)n1` [7n, 2-((6-((2,4-Dioxothiazolidin-5-ylidene)methyl)naphthalen-2-yl)-oxy)-N-(6-methylpyridin-2-yl)acetamide]: the “potency toward HDAC4 over HDAC8” value at HDAC4 is “at least 2 fold”. For the molecule `O=C(COc1ccc2cc(/C=C3/SC(=O)NC3=O)ccc2c1)Nc1ccc(Br)cc1` [7o, N-(4-Bromophenyl)-2-((6-((2,4-dioxothiazolidin-5-ylidene)-methyl)naphthalen-2-yl)oxy)acetamide], in series [1], the “SCI (CC50 HS-27/CC50 cancer), HeLa” value is reported as >10. With `O=C(COc1ccc2cc(/C=C3/SC(=O)NC3=O)ccc2c1)Nc1cc(Cl)cc(C(F)(F)F)c1` [7p, N-(3-Chloro-5-(trifluoromethyl)phenyl)-2-((6-((2,4-dioxothiazoli-din-5-ylidene)methyl)naphthalen-2-yl)oxy)acetamide], at HDAC8, the “HDAC8 inhibition (in words)” value was “did not show HDAC8 inhibition”. Still for that read-out and setting: as for `O=C(COc1ccc2cc(/C=C3/SC(=O)NC3=O)ccc2c1)Nc1ccc(Br)cc1F` [7r, N-(4-Bromo-2-fluorophenyl)-2-((6-((2,4-dioxothiazolidin-5-ylidene)methyl)naphthalen-2-yl)oxy)acetamide], the entry is “inactive”. Consider `O=C(COc1ccc2cc(/C=C3/SC(=O)NC3=O)ccc2c1)Nc1cccc(F)n1` [7s, 2-((6-((2,4-Dioxothiazolidin-5-ylidene)methyl)naphthalen-2-yl)-oxy)-N-(6-fluoropyridin-2-yl)acetamide], for which the “potency toward HDAC4 over HDAC8” value at HDAC4 is on record as “at least 2 fold”. Turning to `Cc1ccc(NC(=O)COc2ccc3cc(/C=C4/SC(=O)NC4=O)ccc3c2)cc1Cl` [7u, N-(3-Chloro-4-methylphenyl)-2-((6-((2,4-dioxothiazolidin-5-ylidene)methyl)naphthalen-2-yl)oxy)acetamide], at HDAC8, the “HDAC8 inhibition (in words)” value was “not active”. With `O=C(COc1ccc2cc(/C=C3/SC(=O)NC3=O)ccc2c1)Nc1ccc(Br)c(Br)c1` [7v, N-(3,4-Dibromophenyl)-2-((6-((2,4-dioxothiazolidin-5-ylidene)-methyl)naphthalen-2-yl)oxy)acetamide], at PPARγ, the “PPARγ transactivation activity (in words)” value is reported as “poor activity”. Moreover, the “HDAC8 inhibition (in words)” value on HDAC8 is given as “not active”. In the case of `O=C(COc1ccc2cc(/C=C3/SC(=O)NC3=O)ccc2c1)Nc1nc2ccccc2s1` [7w, N-(Benzo[d]thiazol-2-yl)-2-((6-((2,4-dioxothiazolidin-5-ylidene)-methyl)naphthalen-2-yl)oxy)acetamide], the “potency toward HDAC4 over HDAC8” value on HDAC4 is reported as “at least 2 fold”. Still for that read-out and setting: as for `Cc1cccc2sc(NC(=O)COc3ccc4cc(/C=C5/SC(=O)NC5=O)ccc4c3)nc12` [7x, 2-((6-((2,4-Dioxothiazolidin-5-ylidene)methyl)naphthalen-2-yl)-oxy)-N-(4-methylbenzo[d]thiazol-2-yl)acetamide], the entry is “at least 2 fold”; as for `CCOc1ccc2nc(NC(=O)COc3ccc4cc(/C=C5/SC(=O)NC5=O)ccc4c3)sc2c1` [7y, 2-((6-((2,4-Dioxothiazolidin-5-ylidene)methyl)naphthalen-2-yl)-oxy)-N-(6-ethoxybenzo[d]thiazol-2-yl)acetamide], “at least 2 fold”. Turning to `CCc1ccc(CCOc2ccc(CC3SC(=O)NC3=O)cc2)nc1` (stereo not shown) [Pioglitazone, reference compound], the “cytotoxicity at 10 μM, HeLa (printed in CC50 column)” value in series [1] (10 μM, 72 h) came out at 0% @ 10 μM. Besides, the “cytotoxicity at 50 μM, CEM (printed in CC50 column)” value in series [2] is given as 0% @ 50 μM; in series [2] (listed as pioglitazone), “no cytotoxic effect”. Consider `COc1cccc2c1C(=O)c1c(O)c3c(c(O)c1C2=O)C[C@@](O)(C(=O)CO)C[C@@H]3O[C@H]1C[C@H](N)[C@H](O)[C@H](C)O1` [doxorubicin, reference compound], for which, in [4], the “body weights of the mice” value is reported as “not significantly affected”.
